From US10995359B2, “Method for determining drug-sensitive human cell lines by analysis method in which measurement of activity of two types of protein kinase is used” (NITTO BOSEKI CO., LTD., priority 2015, dated 2021)

Legend:
Assay in all cases: Drug sensitivity assay (cell growth test), sulforhodamine B
Assay type in all cases: cell-based
HCC38 (BL1) cells = conditions: Homo sapiens, 72 hours, read-out: inhibition rate (%) by trametinib, classification by grid analysis
Procedure: (§1) Cultured cells were treated with a MEK inhibitor and a PI3K inhibitor in various concentrations, and cell lines sensitive to MEK and PI3K were classified by calculating a cell growth inhibition rate. The culture method and analysis method are as follows.
(§2) Thirteen types of cells used in the present study, HCC38 (BL1), MDA-MB-231 (MSL), DU4475 (IM), HCC1187 (IM), HCC1143 (BL1), HCC1395 (LAR), HCC1937 (BL1), MDA-MB-453 (LAR), HCC70 (BL2), HS578T (MSL), MDA-MB-157 (MSL) and MDA-MB-468 (BL1), were obtained from American type culture collection (ATCC), and SUM185PE (LAR) was obtained from ASTERAND BIOSCIENCE. All the cells belong to triple negative breast cancer (TNBC), and it is known which of six types (BL1, BL2, M, MSL, IM and LAR) these belong to by an existing classification method.
(§3) All the cells were cultured in a medium designated from a source of supply, and 2 mM L-glutamine and 10% fetal bovine serum (FBS) were supplemented.
(§4) Each type of cells was seeded in a 96 well titer plate at 1×10^4 cells/well, and trametinib, an MEK inhibitor (Medchem Express; 0.08, 0.16, 0.31, 0.63, 1.25, 2.5, 5, 10 and 20 μM), and wortmannin, a PI3K inhibitor (Wako Pure Chemical Industries, Ltd.; 0.08, 0.16, 0.31, 0.63, 1.25, 2.5, 5, 10 and 20 μM) were dissolved in Dimethyl Sulfoxide [DMSO] (Wako Pure Chemical Industries, Ltd.) in various concentrations and treated. In addition, the effect on cell growth was examined at 72 hours after the inhibitor by sulforhodamine B assay (manufactured by SIGMA-ALDRICH), and 50 μL of sulforhodamine B solution was added to each well and cells were left at room temperature for an hour for staining. The staining degree of metabolically survival cells was examined by monitoring absorbance at a wavelength of 565 nm using a microtiter plate. The absorbance of cells which were not treated with trametinib and wortmannin (treated with DMSO) was used as a control and defined as 100% to calculate a cell growth inhibition rate.
(§5) The cell lines were classified into 4 types, cell lines sensitive to wortmannin (hereinafter, PA), cell lines sensitive to trametinib (hereinafter, MA), cell lines resistant to wortmannin and trametinib (hereinafter, R), and others (hereinafter, S). In the classification, first the inhibition rate of each drug was calculated in a concentration of 1 μM, and the inhibition rate (%) by trametinib and the inhibition rate (%) by wortmannin were plotted on the X axis and Y axis respectively on a graph.
(§6) The cell lines were classified into 4 types, cell lines sensitive to wortmannin (hereinafter, PA), cell lines sensitive to trametinib (hereinafter, MA), cell lines resistant to wortmannin and trametinib (hereinafter, R), and others (hereinafter, S). In the classification, first the inhibition rate of each drug was calculated in a concentration of 100 nM, and the inhibition rate (%) by trametinib and the inhibition rate (%) by wortmannin were plotted on the X axis and Y axis respectively on a graph.
as §5, with “10” for “1”, “graph. Using a 50% growth inhibition rate as an index of the inhibitive effect of a drug, cells were classified into 4 types by grid analysis.” for “graph.”

HCC70 (BL2) cells = conditions: Homo sapiens, 72 hours, read-out: inhibition rate (%) by trametinib, classification by grid analysis
Procedure: as §1, §2, §3, §4, §5, §6
as §5, with “10” for “1”, “graph. Using a 50% growth inhibition rate as an index of the inhibitive effect of a drug, cells were classified into 4 types by grid analysis.” for “graph.”

MDA-MB-157 (MSL) cells = conditions: Homo sapiens, 72 hours, read-out: inhibition rate (%) by trametinib, classification by grid analysis
Procedure: as §1, §2, §3, §4, §5, §6
as §5, with “10” for “1”, “graph. Using a 50% growth inhibition rate as an index of the inhibitive effect of a drug, cells were classified into 4 types by grid analysis.” for “graph.”

DU4475 (IM) cells = conditions: Homo sapiens, DU-4475, 72 hours, read-out: inhibition rate (%) by trametinib, classification by grid analysis
Procedure: as §1, §2, §3, §4, §5, §6
as §5, with “10” for “1”, “graph. Using a 50% growth inhibition rate as an index of the inhibitive effect of a drug, cells were classified into 4 types by grid analysis.” for “graph.”

MDA-MB-231 (MSL) cells = conditions: Homo sapiens, 72 hours, read-out: inhibition rate (%) by trametinib, classification by grid analysis
Procedure: as §1, §2, §3, §4, §5, §6
as §5, with “10” for “1”, “graph. Using a 50% growth inhibition rate as an index of the inhibitive effect of a drug, cells were classified into 4 types by grid analysis.” for “graph.”

HS578T (MSL) cells = conditions: Homo sapiens, Hs-578T, 72 hours, read-out: inhibition rate (%) by trametinib, classification by grid analysis
Procedure: as §1, §2, §3, §4, §5, §6
as §5, with “10” for “1”, “graph. Using a 50% growth inhibition rate as an index of the inhibitive effect of a drug, cells were classified into 4 types by grid analysis.” for “graph.”

SUM185PE (LAR) cells = conditions: Homo sapiens, 72 hours, read-out: inhibition rate (%) by trametinib, classification by grid analysis
Procedure: as §1, §2, §3, §4, §5, §6
as §5, with “10” for “1”, “graph. Using a 50% growth inhibition rate as an index of the inhibitive effect of a drug, cells were classified into 4 types by grid analysis.” for “graph.”

MDA-MB-468 (BL1) cells = conditions: Homo sapiens, 72 hours, read-out: inhibition rate (%) by trametinib, classification by grid analysis
Procedure: as §1, §2, §3, §4, §5, §6
as §5, with “10” for “1”, “graph. Using a 50% growth inhibition rate as an index of the inhibitive effect of a drug, cells were classified into 4 types by grid analysis.” for “graph.”

HCC1937 (BL1) cells = conditions: Homo sapiens, 72 hours, read-out: inhibition rate (%) by trametinib, classification by grid analysis
Procedure: as §1, §2, §3, §4, §5, §6
as §5, with “10” for “1”, “graph. Using a 50% growth inhibition rate as an index of the inhibitive effect of a drug, cells were classified into 4 types by grid analysis.” for “graph.”

[1] = 100 nM, index 12.5% growth inhibition rate
[2] = 1 μM, index 25% growth inhibition rate
[3] = 10 μM, index 50% growth inhibition rate

Work on `CC(=O)Nc1cccc(-n2c(=O)n(C3CC3)c(=O)c3c(Nc4ccc(I)cc4F)n(C)c(=O)c(C)c32)c1` [trametinib] yielded an inhibition at 0.1 µM (HCC38 (BL1) cells; HCC38, 100 nM, index 12.5% growth inhibition rate) of over 12.5%, an inhibition at 1 µM (HCC38 (BL1) cells; HCC38, 1 μM, index 25% growth inhibition rate) of over 25% and an inhibition at 10 µM (HCC38 (BL1) cells; HCC38, 10 μM, index 50% growth inhibition rate) of over 50%. It also gave an inhibition at 0.1 µM (HCC70 (BL2) cells; HCC70, 100 nM, index 12.5% growth inhibition rate) of over 12.5%, an inhibition at 1 µM (HCC70 (BL2) cells; HCC70, 1 μM, index 25% growth inhibition rate) of over 25% and an inhibition at 10 µM (HCC70 (BL2) cells; HCC70, 10 μM, index 50% growth inhibition rate) of over 50%. For the same molecule, the inhibition at 0.1 µM (MDA-MB-157 (MSL) cells; MDA-MB-157, 100 nM, index 12.5% growth inhibition rate) was under 12.5%, the inhibition at 1 µM (MDA-MB-157 (MSL) cells; MDA-MB-157, 1 μM, index 25% growth inhibition rate) was under 25% and the inhibition at 10 µM (MDA-MB-157 (MSL) cells; MDA-MB-157, 10 μM, index 50% growth inhibition rate) was under 50%. For the same molecule, the inhibition at 0.1 µM (DU4475 (IM) cells; DU4475, 100 nM, index 12.5% growth inhibition rate) was over 12.5%, the inhibition at 1 µM (DU4475 (IM) cells; DU4475, 1 μM, index 25% growth inhibition rate) was over 25% and the inhibition at 10 µM (DU4475 (IM) cells; DU4475, 10 μM, index 50% growth inhibition rate) was over 50%. For the same molecule, the inhibition at 0.1 µM (MDA-MB-231 (MSL) cells; MDA-MB-231, 100 nM, index 12.5% growth inhibition rate) was over 12.5%, the inhibition at 1 µM (MDA-MB-231 (MSL) cells; MDA-MB-231, 1 μM, index 25% growth inhibition rate) was over 25% and the inhibition at 10 µM (MDA-MB-231 (MSL) cells; MDA-MB-231, 10 μM, index 50% growth inhibition rate) was over 50%. It also gave an inhibition at 0.1 µM (HS578T (MSL) cells; [1]) of under 12.5%, an inhibition at 1 µM (HS578T (MSL) cells; [2]) of under 25% and an inhibition at 10 µM (HS578T (MSL) cells; [3]) of under 50%. The inhibition at 0.1 µM (SUM185PE (LAR) cells; [1]) was under 12.5%, the inhibition at 1 µM (SUM185PE (LAR) cells; [2]) was under 25% and the inhibition at 10 µM (SUM185PE (LAR) cells; [3]) was under 50%. The inhibition at 0.1 µM (MDA-MB-468 (BL1) cells; MDA-MB-468, 100 nM, index 12.5% growth inhibition rate) was under 12.5%, the inhibition at 1 µM (MDA-MB-468 (BL1) cells; MDA-MB-468, 1 μM, index 25% growth inhibition rate) was under 25% and the inhibition at 10 µM (MDA-MB-468 (BL1) cells; MDA-MB-468, 10 μM, index 50% growth inhibition rate) was under 50%. For the same molecule, the inhibition at 0.1 µM (HCC1937 (BL1) cells; HCC1937, 100 nM, index 12.5% growth inhibition rate) was under 12.5%, the inhibition at 1 µM (HCC1937 (BL1) cells; HCC1937, 1 μM, index 25% growth inhibition rate) was under 25% and the inhibition at 10 µM (HCC1937 (BL1) cells; HCC1937, 10 μM, index 50% growth inhibition rate) was under 50%.
